Test results as given in publication PMC13252604, “First Generation Proteolysis Targeting Chimeras (PROTACs) for the Treatment of Progeria” (Advanced Science, 2026).
Values after ≈ are worked out from the molar mass of the structure shown.

Legend:
[1] = Solubility in phosphate buffer solution; type: physicochemical; conditions: aqueous buffer; phosphate buffer solution (PBS, pH = 7.5)
[2] = tested on: Lmna^G609G/G609G fibroblasts; experiment: Senescence-associated β-galactosidase activity in mouse progeroid cells; type: cell-based; conditions: 5 µM
Protocol: Confocal fluorescence microscopy images are representative of 2 independent experiments. […] Representative cropped immunoblots are shown. […] MW, molecular weight (in kDa) markers. (C) PROTAC 2 decreases senescence‐associated β‐galactosidase (SA‐βgal) activity, interleukin (IL) 1α and p16 senescent markers. Lmna^G609G/G609G (G609G) or Lmna^+/+ (WT) fibroblasts were incubated with vehicle or compound 2 (5 µM). […] Data were analysed using one‐way ANOVA followed by Dunnett's post–hoc test. ^*, p < 0.05; ^**, p < 0.01, ^***, p < 0.001, ^****, p < 0.0001 vs G609G cells. […]
TBS-T and proteins were visualized by quimioluminiscence (GE Healthcare […]
SA β-galactosidase activity was determined by the FDG method. […]
(§1) ferrocyanide, 0.6 mL 5 M NaCl, 0.2 mL 0.2 M MgCl2, (all from Sigma Aldrich) and 6.2 mL of deionized water in a total volume of 20 mL] in the dark in a humidified incubator at 37 °C for 24 h without CO2 supply. Then, an equal volume of the supernatant of each well was transferred to a new 96-well plate for fluorescence measurement. The resultant production of fluorescein was measured using a FluoStar Optima instrument (BMG Labtech) with an excitation of 485 nm and emission at 535 nm. […]
Total RNA was extracted by RNAeasy Mini Kit (Qiagen) according to the manufacturer instructions and subsequently quantified using the NanoPhotometer N60 (Implen). […]

[3] = tested on: HGADFN167 Lmna^G608G/G608G fibroblasts; experiment: RT-qPCR of senescence markers in human progeroid cells; type: cell-based; conditions: HGADFN167, 5 µM, 20 days
Text: FIGURE 6 (A) Representative cropped immunoblots and progerin quantification in human Lmna^G608G/G608G fibroblasts. MW, molecular weight (in kDa) markers. […] (B) PROTAC 2 increases cell proliferation (upper panels) and decreases the number of misshapen nuclei (lower panels). White arrows highlight selected misshapen nuclei. (C) PROTAC 2 decreases senescence‐associated β‐galactosidase (SA‐βgal) activity, interleukin (IL) 6, p16 and p21 senescent markers. Bar graphs show mean±sem of 2 (SA‐βgal and p21) or 3 (IL‐6 and p16) independent experiments performed in triplicate. (D) PROTAC 2 decreases phosphorylated histone 2AX (pH2AX) and increases trimethylated histone 3 (H3K9Me3) levels. (E) PROTAC 2 increases the oxygen consumption rate (OCR), ATP production and the number of healthy mitochondria in human progeroid cells. Bar graphs show mean±sem of 2 independent experiments performed in duplicate. […] Data were analysed using one‐way ANOVA followed by Dunnett's post–hoc test vs vehicle (panel A) or vs G608G cells (panels B‐E). ^*, p < 0.05; ^**, p < 0.01; ^***, p < 0.001; ^****, p < 0.0001. […]
as §1
Total RNA was extracted by RNAeasy Mini Kit (Qiagen) according to the manufacturer instructions and subsequently quantified using the NanoPhotometer N60 (Implen). […] Quantitative real-time PCR was run in the QuantStudio 7FLEX (Applied Biosystems) system and results were normalized according to β-actin quantification.
Specific `in-house´ designed primers (see sequence below) were purchased from Metabion. The threshold cycle (Ct) was determined, and the relative gene expression was […]

CC1(C)Oc2cc3oc(=O)ccc3cc2C[C@@H]1OC(=O)CCCCCNc1cccc2c1C(=O)N(C1CCC(=O)NC1=O)C2=O (some centres unmarked) [compound 2]
solubility [1]: 0.5 µM (≈ 0.308 µg/mL)
senescence‐associated β‐galactosidase (SA‐βgal) activity [2]: significantly reduced
IL‐6 senescent marker [3]: significantly reduced
p16 senescent marker [3]: significantly reduced
p21 senescent marker [3]: significantly reduced
